Results reported in ChEMBL document CHEMBL3751727, “One-pot green synthesis of 1,3,5-triarylpentane-1,5-dione and triarylmethane derivatives as a new class of tyrosinase inhibitors” (Bioorg Med Chem Lett, 2016).

Assays:
[1] = target: T1, Tyrosinase (Agaricus bisporus, UniProt O42713)
T1 sequence (O42713 whole entry): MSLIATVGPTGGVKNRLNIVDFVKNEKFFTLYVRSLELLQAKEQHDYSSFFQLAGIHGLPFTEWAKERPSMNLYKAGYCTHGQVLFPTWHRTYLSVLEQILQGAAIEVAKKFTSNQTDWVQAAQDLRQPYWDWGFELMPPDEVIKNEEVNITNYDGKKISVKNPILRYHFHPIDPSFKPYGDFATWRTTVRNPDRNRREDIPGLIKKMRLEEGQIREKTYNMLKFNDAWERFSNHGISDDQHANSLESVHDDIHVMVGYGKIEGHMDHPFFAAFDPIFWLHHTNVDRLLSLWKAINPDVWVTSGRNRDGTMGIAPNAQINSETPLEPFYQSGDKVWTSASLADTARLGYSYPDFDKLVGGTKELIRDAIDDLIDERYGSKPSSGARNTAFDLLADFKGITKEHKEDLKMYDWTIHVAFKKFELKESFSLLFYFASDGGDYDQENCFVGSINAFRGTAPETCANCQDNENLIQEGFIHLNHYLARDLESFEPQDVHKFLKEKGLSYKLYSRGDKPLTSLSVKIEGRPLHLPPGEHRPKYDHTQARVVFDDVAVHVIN
Description: Inhibition of mushroom tyrosinase using L-tyrosine as substrate after 20 mins by spectrophotometric method

[2] = target: T2, Tyrosinase (Agaricus bisporus) (UniProt O42713); assay: Ratio of kojic acid IC50 to compound IC50 for mushroom tyrosinase
T2 sequence (whole entry): T1 sequence (O42713 whole entry)

Row | Compound | IC50 [1] | Ratio IC50 [2]
1 | CC(=O)c1ccccc1O | > 300 µM | 
2 | CC(=O)c1c(O)cccc1O | > 300 µM | 
3 | CC(=O)c1c(O)ccc(C(c2ccc(O)cc2O)c2ccc(O)c(C(C)=O)c2O)c1O | 16.2 µM | 
4 | O=Cc1ccc(O)cc1O | > 200 µM | 

Now from value to molecule:

Row | IC50 [1] | Ratio IC50 [2] | Compound
5 | 1.96 µM |  | O=C1CC(c2ccc(O)cc2O)Oc2cccc(O)c21 (stereo unspecified)
6 | 0.97 µM | 30 | O=C1CC(c2ccc(O)cc2O)Oc2ccccc21 (stereo unspecified)
7 | 2.72 µM |  | O=c1cc(-c2ccc(O)cc2O)oc2cccc(O)c12
8 | 0.029 µM | 30 | O=C(/C=C/c1ccc(O)cc1O)c1ccccc1O
9 | 1.67 µM |  | O=C(CC(CC(=O)c1ccccc1O)c1ccc(O)cc1O)c1ccccc1O
